Experimental data as given in patent US20260284190A1, “METHODS FOR THE TREATMENT OF T-CELL ACUTE LYMPHOBLASTIC LEUKEMIA” (Institut Curie, priority 2023, published 2026).

What was measured:
[1] = in vivo; cited from earlier work
[2] = test system: TCRαβ+ and TCRγδ+ T-ALL patients-derived xenografts; settings: cited from earlier work
[3] = test system: caspase 8 activity in T-ALL cells; assay: Caspase 8 activity by flow cytometry in primary leukemic cells from treated leukemic mice; design: species or system NSG mice; settings: in vivo, 6 h; FIG. 2
Protocol: FIG. 2: Caspase 8 activity as measured by flow cytometry in primary leukemic cells collected from leukemic mice treated by control IgG (n=3) or anti-CD3 (OKT3) (n=3) mAbs for 6 h.
Cell suspensions prepared from mouse lymphoid organs, bone marrow, or blood were stained with fluorochrome-labeled antibodies and analyzed on a FACSCanto cytometer (BD Biosciences), as recommended by manufacturer. Data are analyzed using Diva, CellQuest (BD Biosciences) and FlowJo (TreeStar) softwares. Antibodies used are: CD7-FITC (4H9), CD45-APC (2D4) (eBioscience), PD1-Alexa Fluor 647 (EH12.2H7) (Biolegend).

T-ALL PDX cells = assay: Transcriptome profiling (Affymetrix microarray) of T-ALL PDX in response to anti-CD3; assay type: in vivo, NSG mice; settings: 40 μg, 6 hours; for expression of genes of interest (TNFR super family pathway, PD1): FIG. 1B; for TCR-induced signature: number of deregulated genes: 2X, p-value<0.05, common to both monoclonal antibodies, in vivo
Description: Leukemic cells were then collected, flow-cytometry sorted, RNA isolated and analyzed using human Affymetrix arrays. […] FC: Fold Change. C RNA expression analysis (digitalized numeration of transcripts-mRNA) of genes of interest in M106 xenograft overtime after OKT3 treatment using Nanostring arrays: TNFα, LTα, TNFRSF9 (4-1BB), TNFRSF1B (TNFR2), TNFRSF4 (OX40) and PDCD1 (PD1). D Flow cytometry analysis of TNFRSF1B (TNFR2), TNFRSF1A (TNFR1), TNFRSF9 (4-1BB), TNFRSF4 (OX40) and PDCD1 (PD 1) cell surface expression in leukemic cells isolated from mice treated with 40μg of control IgG or OKT3 for 24h.
Total RNA was isolated from flow-cytometry-sorted leukemic cells (FSChi, hCD7+, hCD 45+) (6 hours following treatment with either 40 μg anti-CD 3 mAb or control IgG 2a antibody), using the Rneasy kit (QIAGEN). cRNA synthesis and hybridization of GeneChip Human Gene 2.0ST Array (Affymetrix) were according to the manufacturer's instructions, as described (http: //www-microarrays. u-strasbg. fr). A paired Student's t-test was performed to compare gene intensities in the different biological replicates. […] Hierarchical clustering analysis and pathway analyses on regulated genes (KEGG) were performed by Genosplice company.

Substance	adverse effects in humans [1]	final outcome of monotherapy ([2]; mice carrying TCR+ T-ALL PDX)	anti-leukemic effects over time ([2]; monotherapy of T-ALL PDX)	host survival ([2]; monotherapy of T-ALL PDX)	leukemic cells apoptosis ([2]; monotherapy of T-ALL PDX)	remission ([2]; monotherapy of T-ALL PDX)	caspase 8 activity in T-ALL cells [3]	expression of genes of interest (TNFR super family pathway, PD1) (T-ALL PDX cells)	TCR-induced signature: number of deregulated genes (T-ALL PDX cells)
foralumab: a fully human anti-CD3 mAb	only minor adverse effects	leukemia relapse and resistance to TCR-directed therapy	profound anti-leukemic effects	improved host survival	within hours	durable remission	–	–	–
OKT3: anti-CD3ε monoclonal antibody (IgG2a)	–	–	–	–	–	–	fast induction	significantly upregulated	~600
teplizumab: a humanized, mutated version of OKT3 which is FDA-approved in prevention of type I diabetes	only minor adverse effects	–	–	–	–	–	–	significantly upregulated	~600
